Measured values taken from paper PMC6892255, “Identification of a potent small-molecule inhibitor of bacterial DNA repair that potentiates quinolone antibiotic activity in methicillin-resistant Staphylococcus aureus^” (Bioorganic & Medicinal Chemistry, 2019).
Entries after “also recorded” stand apart in the source; their conditions may differ.

Columns and labels:
MRSA (USA300 JE2) [1] = test: Growth inhibition in the presence of H2O2; type: cell-based, Staphylococcus aureus
Method: (§1) The analogue panel was further tested for potentiation of alternative DNA-damaging agents Mitomycin-C (MMC) and hydrogen peroxide (Table S2), which function via alkylation and oxidization DNA bases, respectively.
(§2) 2.1. Biological and biochemical methods
(§3) Bacterial strains and culture conditions
(§4) Strains utilized in the present study are detailed in Table S1. All strains used were cultivated on Mueller Hinton Agar (MHA) and grown to stationary-phase in Mueller Hinton Broth (MHB) at 37 °C for 16 h, with shaking at 180 r.p.m.
(§5) Minimum inhibitory concentration (MIC) assays
(§6) MIC assays were performed in 96 well plates and MICs were determined in accordance with the broth microdilution protocol.4 Strains grown to stationary-phase in MHB were adjusted to 5 x 10^5 colony-forming units (CFU)/mL in fresh MHB (100 µL/well) supplemented with DMSO to ensure a constant concentration of 0.5% (v/v) DMSO across all experiments. Where […]
(§7) or H2O2 (200 μM). Test compounds were prepared as two-fold serial dilutions. Cells were […]
(§8) as the lowest concentration with no visible bacterial growth, and the optical density at 600 nm (OD600) was recorded. OD600 measurements were background corrected against no-inocula control and normalized to DMSO control for dose-response analysis. The EC50 value mean and SEM were calculated from individual EC50 values from three biological replicates. […]

S. aureus SH1000 = test: MIC / growth inhibition assay (end-point OD600), single agent; type: cell-based; conditions: Staphylococcus aureus, SH1000, 18 h, end-point OD600 after 18 h, read-out: EC50 S. aureus (SH1000) Compound only
Excerpt: Minimum inhibitory concentration (MIC) assays were used to evaluate the antimicrobial activity of compounds against Gram-negative (E. coli) and Gram-positive (S. aureus) bacteria. […] Gram-positive bacteria are more susceptible to small-molecule penetration, and compounds were therefore assessed for growth inhibition against the S. aureus SH1000 strain.
as §2, §3, §4, §5, §6, §7, §8

MRSA (USA300 JE2) [2] = test: Growth inhibition in the presence of mitomycin-C; type: cell-based, Staphylococcus aureus
Method: as §1, §2, §3, §4, §5, §6, §7, §8

[3] = test system: SOS response in JE2 cells; test: SOS reporter assay (GFP under control of the recA promoter); type: cell-based, Staphylococcus aureus; conditions: for SOS response (normalized GFP fluorescence/cell): JE2 recA-GFP reporter, SOS activated with CFX (10 µM), titration of compound
Excerpt: A SOS reporter system was generated by transformation of JE2 cells with a plasmid containing GFP under control of the recA promoter. Activation of the SOS response in these cells results in expression of GFP which can be monitored by fluorescence intensity. […] IMP-1700 (10) was coupled with N-Boc-ethylenediamine to afford amide 19, followed by removal of the Boc group in 4 M HCl/dioxane and purification using strong cation exchange resin. The resulting free amine 20 was coupled to N-hydroxysuccinimide (NHS)-activated Sepharose resin at 4 °C overnight (Figure 2C), and the remaining NHS sites quenched in Tris buffer. SoluBL21 competent E. coli were transformed with pET28b^+ containing StrepII-tagged AddA and hexahistidine-tagged AddB, and expression induced overnight at 16 °C. […] Beads were washed three times with lysis buffer and bound protein eluted with SDS-PAGE sample buffer, followed by PAGE separation. […]
JE2 transformed with SOS-inducible pCN34 PrecA-gfp reporter plasmid expressing GFP under the control of the recA promoter were grown to late stationary phase at 37 °C in MHB containing kanamycin (90 μg/mL). Stationary phase JE2 culture (1 mL) was centrifuged (17,000 × g, 2 min), the supernatant removed and cells resuspended in assay media (12.5 µM […]
concentration was maintained >12.5 µM and DMSO concentration maintained at 1.5% (v/v).
JE2 culture (20 uL) was added to inhibitor solutions (180 µL) to a final cell density of 4 x 10^7 CFU/mL and samples incubated in a M200-PRO microplate reader (Tecan) at 37 °C with 700 rpm agitation for 17 h. GFP fluorescence intensity and OD600 were measured at 15 min intervals. Measurements were background corrected against no-inocula control and normalized to no-test inhibitor control at mid-exponential growth phase (4.5 h) for dose-response analysis. […]

E. coli topoisomerase IV = target: T1, E. coli topoisomerase IV (Escherichia coli, UniProt P0AFI2+P20083); test: Topoisomerase IV supercoiling relaxation assay (pQE80L); type: biochemical; conditions: at 12.5 µM (compounds)
T1 construct: purchased Inspiralis
T1 sequence (P0AFI2 whole entry): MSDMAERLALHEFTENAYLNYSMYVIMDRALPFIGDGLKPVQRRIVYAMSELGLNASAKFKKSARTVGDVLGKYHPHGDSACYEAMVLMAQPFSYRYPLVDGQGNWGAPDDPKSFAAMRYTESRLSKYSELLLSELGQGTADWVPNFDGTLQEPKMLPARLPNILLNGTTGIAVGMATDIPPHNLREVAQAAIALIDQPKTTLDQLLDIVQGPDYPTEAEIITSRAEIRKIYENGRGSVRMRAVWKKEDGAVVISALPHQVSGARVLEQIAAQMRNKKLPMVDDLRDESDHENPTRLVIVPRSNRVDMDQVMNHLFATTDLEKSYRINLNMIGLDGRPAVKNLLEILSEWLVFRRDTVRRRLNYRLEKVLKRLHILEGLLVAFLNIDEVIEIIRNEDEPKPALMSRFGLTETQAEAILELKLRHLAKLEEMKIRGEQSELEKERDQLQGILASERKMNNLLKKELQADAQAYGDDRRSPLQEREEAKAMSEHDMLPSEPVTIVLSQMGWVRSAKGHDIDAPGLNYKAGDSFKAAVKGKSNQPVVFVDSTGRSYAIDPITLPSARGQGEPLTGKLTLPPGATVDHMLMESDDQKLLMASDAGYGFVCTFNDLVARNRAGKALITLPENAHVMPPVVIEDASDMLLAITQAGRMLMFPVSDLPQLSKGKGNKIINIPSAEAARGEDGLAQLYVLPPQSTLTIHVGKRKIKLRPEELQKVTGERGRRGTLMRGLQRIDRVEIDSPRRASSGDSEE
T1 sequence (P20083 whole entry): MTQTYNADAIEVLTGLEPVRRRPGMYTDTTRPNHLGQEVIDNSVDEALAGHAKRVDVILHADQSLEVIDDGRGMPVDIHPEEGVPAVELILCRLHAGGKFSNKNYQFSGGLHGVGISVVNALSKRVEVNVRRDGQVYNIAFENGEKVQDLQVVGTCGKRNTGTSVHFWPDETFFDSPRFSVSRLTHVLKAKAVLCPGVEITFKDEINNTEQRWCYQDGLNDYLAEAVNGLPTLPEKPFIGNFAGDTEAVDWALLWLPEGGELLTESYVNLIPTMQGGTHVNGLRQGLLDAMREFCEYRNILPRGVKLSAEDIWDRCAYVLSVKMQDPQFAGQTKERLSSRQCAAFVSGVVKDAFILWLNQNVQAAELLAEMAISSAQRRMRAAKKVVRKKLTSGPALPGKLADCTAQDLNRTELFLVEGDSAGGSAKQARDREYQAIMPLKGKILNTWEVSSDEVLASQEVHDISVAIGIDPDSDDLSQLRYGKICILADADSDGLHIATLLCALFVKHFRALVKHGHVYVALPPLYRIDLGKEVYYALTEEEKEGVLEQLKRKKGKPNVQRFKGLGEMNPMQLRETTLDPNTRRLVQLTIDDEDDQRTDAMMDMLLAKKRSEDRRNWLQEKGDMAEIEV
Method: 2.1. Biological and biochemical methods […]
E. coli DNA gyrase supercoiling assay (Inspiralis) was performed according to the manufacturer’s instructions, ensuring a constant concentration of 1% (v/v) DMSO. Samples were separated on a 1% (w/v) agarose gel prepared with Tris/Borate/EDTA (TBE) buffer (1 M Tris-borate, 20 mM EDTA, pH 8.0). Electrophoresis was performed at 100 V until the bromophenol blue dye had run >6 cm to ensure resolution of relaxed and supercoiled DNA.
The gel was stained with SYBR Safe DNA gel stain (Invitrogen, 1:10,000 dilution in TBE) for 30 min, and visualized on a Syngene Gel Doc system. Band intensity was quantified using ImageJ software and the fraction of supercoiled plasmid was determined as the ratio of the density of the supercoiled band to the total density. Values were background corrected against the no-gyrase control and normalized to DMSO control for dose-response analysis.
E. coli topoisomerase IV supercoiling relaxation assay (Inspiralis) was performed according to the manufacturer’s instructions, ensuring a constant concentration of 1% (v/v) DMSO.
Supercoiled pQE80L was prepared via plasmid purification and used as the substrate for the reaction. Reactions were analyzed as described for DNA gyrase assays. […]

[4] = test system: methicillin-resistant S. aureus (MRSA, USA300 JE2); test: Ciprofloxacin (CFX) potentiation in MRSA growth inhibition assay; type: cell-based, Staphylococcus aureus
Method: as §2, §3, §4, §5, §6, §7, §8

JE2 = test: Synergy experiments with CFX (growth rate method, Chou-Talalay, CompuSyn); type: cell-based, Staphylococcus aureus
Method: A more precise method to determine EC50 values for individual compounds and combinations was used to increase accuracy for CI calculations. […]
Synergy experiments were performed as described for MIC assays. Two-fold serial dilutions […]
carried out at 37 °C, with shaking at 220 r.p.m. OD600 was recorded every 30 min over a 17 h period. Measurements were background corrected against the no-inocula control before a growth curve of OD600 against time was constructed. The gradient of the exponential phase was obtained by linear regression. Gradients were normalized against the smallest and largest value within the respective data set prior to analysis with the CompuSyn software (http://www.combosyn.com/) to calculate combination index (CI) and dose-reduction index (DRI) values for each drug combination. […]

## O=C(O)c1cn(C2CC2)c2cc(N3CCN(C(=S)Nc4ccc(C(F)(F)F)cc4)CC3)c(F)cc2c1=O [Compound 10]
MRSA (USA300 JE2) [1]; JE2
  Potentiation of hydrogen peroxide: did not potentiate
MRSA (USA300 JE2) [1]; read-out: EC50 Compound + H2O2 (200 µM), MRSA USA300 JE2, H2O2 200 µM
  EC50: 4100 ± 600 nM
S. aureus SH1000
  EC50: 210 ± 30 nM
MRSA (USA300 JE2) [2]; JE2
  Potentiation of Mitomycin-C (MMC): did not potentiate
MRSA (USA300 JE2) [2]; read-out: EC50 Compound + MMC (0.40 µM), MRSA USA300 JE2, mitomycin-C 0.40 µM
  EC50: 1400 ± 300 nM
[3]; JE2 recA-GFP reporter with CFX (10 µM)
  Effect on cell number (OD600) in SOS reporter assay: decrease in cell number at low micromolar concentrations
[3]
  SOS response (normalized GFP fluorescence/cell): decreased
[3]; listed as IMP-1700
  SOS response (normalized GFP fluorescence/cell): decreased normalized GFP fluorescence/cell; also recorded: decreased SOS response
E. coli topoisomerase IV
  Inhibition of topoisomerase IV: not inhibited and not
[4]; CFX 9.4 µM
  fold increase in potency against JE2 in the presence of CFX compared to single agent: ~650 fold
[4]; JE2 + CFX
  fold increase in potency compared to 1 for potentiation against JE2 by CFX: ~160 fold
[4]; JE2 + CFX, 4 vs 1, 10 vs 7, 14 vs 13
  fold increase in potency of para- over meta-substituted analogue, potentiation by CFX: ~25 fold
[4]; read-out: EC50 S. aureus (USA300 JE2) Compound + CFX (9.4 μM), in presence of half-MIC CFX (9.4 μM)
  EC50: 5.9 ± 0.6 nM
JE2; JE2, combination with CFX, CompuSyn
  Dose-reduction index (DRI): 2.8
JE2; JE2, constant-ratio combination with CFX, CompuSyn
  Combination index (CI) with CFX: 0.70
JE2; Staphylococcus aureus, JE2, rate of exponential growth phase over 17 h at 37 °C
  EC50: 2800 ± 200 nM
